Experimental data as given in patent US4495186A, “Organometal complexes of N-cyclohexyl-piperazino acetamides or propionamides, preparation and use thereof as antiulcer-antisecretive-buffering drugs” (Camillo Corvi S.p.A., priority 1982, dated 1985).

Assays:
[1] = from U.S. Pat. No. 4,123,530; cited from earlier work
[2] = test system: From indomethacin experimental ulcer; assay: antiulcer activity, ulcer from indomethacin; type: in vivo; conditions: rat, os
From the text: (§1) The antiulcer activity has been tested on the rat for different types of experimental ulcer. The obtained therefrom is in Table 2.

[3] = test system: Phenylbutazone + hystamine experimental ulcer; assay: antiulcer activity, phenylbutazone + hystamine ulcer; type: in vivo; conditions: rat, os
From the text: as §1

mouse = assay: acute toxicity per os, mouse; type: in vivo; conditions: fiduciary limits (6646.4-5862.2)
From the text: (§2) The acute toxicity of the complex salt of dihydroxy-aluminum-gluconate of N-cyclohexyl-piperazino acetamide is checked by the usual pharmacotoxicologic testing on the rat and mouse per os, the results of which are given in the following table.

gastric hyperacidity = assay: buffering activity (neutralizing action for gastric hyperacidity); type: in vivo; conditions: rat, os
[4] = test system: Immobilization experimental ulcer; assay: antiulcer activity, immobilization ulcer; type: in vivo; conditions: rat, os
From the text: as §1

[5] = buffering effect, HCl titration in vitro; type: physicochemical; conditions: 4.6 g sample in 400 ml 0.015 N HCl, 37° C., 0.1 N HCl at 1 ml/minute; minimum requirement
Experimental: Buffering effect: to 4.6 g of the sample, in a 1000 ml beaker, 400 ml of 0.015 N HCl are added, while keeping the temperature at 37° C. (thermostat). The pH is measured after 30 minutes, while controlling that it be maintained within 4.8.div.5.0. Then, by means of a burette, 0.1 N HCl is introduced at a rate of 1 ml/minute, to achieve a pH of 3.0. 165 ml of 0.1N HCl must be consumed at the very least.

Shay experimental ulcer = assay: antiulcer activity, Shay ulcer; type: in vivo; conditions: rat, i.d.
From the text: as §1

[6] = test system: Duodenal from cystamine experimental ulcer; assay: antiulcer activity, duodenal ulcer from cystamine; type: in vivo; conditions: rat, i.d.
From the text: as §1

[7] = test system: Reserpine experimental ulcer; assay: antiulcer activity, reserpine ulcer; type: in vivo; conditions: rat, os
From the text: as §1

rat = assay: acute toxicity per os, rat; type: in vivo
From the text: as §2

antisecretive activity = type: in vivo; conditions: rat, os
Fast experimental ulcer = assay: antiulcer activity, fast ulcer; type: in vivo; conditions: rat, os
From the text: as §1

| Compound | antisecretive and antiulcer activity [1] | ED50 (antiulcer) [2] | ED50 (antiulcer) [3] | LD50 (mouse) | ED50 (buffering activity) (gastric hyperacidity) | ED50 (antiulcer) [4] | 0.1N HCl consumed to achieve a pH of 3.0 [5] | ED50 (antiulcer) (Shay experimental ulcer) | ED50 (antiulcer) [6] | ED50 (antiulcer) [7] | toxicity (rat; rat and mouse per os, overall statement) | LD50 (rat; rat, os, fiduciary limits (8447.4-5264.6)) | ED50 (antisecretive activity) (antisecretive activity) | ED50 (antiulcer) (Fast experimental ulcer) |
| --- | --- | --- | --- | --- | --- | --- | --- | --- | --- | --- | --- | --- | --- | --- |
| O=C(CN1CCNCC1)NC1CCCCC1 [N-cyclohexyl-1-piperaziniylacetamide] | considerable | – | – | – | – | – | – | – | – | – | – | – | – | – |
| Dihydroxy-aluminate-gluconate of N- cyclohexyl-1-piperazino-acetamide | – | 420 mg/kg | 150 mg/kg | 6241.9 mg/kg | 156 mg/kg | 420 mg/kg | ≥ 165 ml | 360 mg/kg | 270 mg/kg | 480 mg/kg | very low | 6668.4 mg/kg | 330 mg/kg | 350 mg/kg |
| CC1CCC(NC(=O)CN2CCNCC2)CC1 (stereo not drawn) [N-4-methyl-cyclohexyl-1-piperazinylacetamide] | considerable | – | – | – | – | – | – | – | – | – | – | – | – | – |
